Publication PMC4556714, “Drug Development in Conformational Diseases: A Novel Family of Chemical Chaperones that Bind and Stabilise Several Polymorphic Amyloid Structures” (PLoS ONE, 2015)

How the values were obtained:
[1] = target: T1, Bovine serum albumin (BSA, fraction V) (Bos taurus, UniProt P02769); experiment: ThT fluorescence, BSA fibrillation at […]; assay type: biochemical; conditions: BSA 100 μmol/L, glycine buffer pH 3, NaCl 100 mM, 65°C
T1 construct: gene ALB; mature native serum albumin, 585 residues, fraction V from Roche; heat/acid-induced amyloid aggregation

[2] = target: T1, Bovine serum albumin (BSA, fraction V); experiment: ThT fluorescence, inhibition of BSA amyloid aggregation; assay type: biochemical

T1 sequence (P02769 25-607): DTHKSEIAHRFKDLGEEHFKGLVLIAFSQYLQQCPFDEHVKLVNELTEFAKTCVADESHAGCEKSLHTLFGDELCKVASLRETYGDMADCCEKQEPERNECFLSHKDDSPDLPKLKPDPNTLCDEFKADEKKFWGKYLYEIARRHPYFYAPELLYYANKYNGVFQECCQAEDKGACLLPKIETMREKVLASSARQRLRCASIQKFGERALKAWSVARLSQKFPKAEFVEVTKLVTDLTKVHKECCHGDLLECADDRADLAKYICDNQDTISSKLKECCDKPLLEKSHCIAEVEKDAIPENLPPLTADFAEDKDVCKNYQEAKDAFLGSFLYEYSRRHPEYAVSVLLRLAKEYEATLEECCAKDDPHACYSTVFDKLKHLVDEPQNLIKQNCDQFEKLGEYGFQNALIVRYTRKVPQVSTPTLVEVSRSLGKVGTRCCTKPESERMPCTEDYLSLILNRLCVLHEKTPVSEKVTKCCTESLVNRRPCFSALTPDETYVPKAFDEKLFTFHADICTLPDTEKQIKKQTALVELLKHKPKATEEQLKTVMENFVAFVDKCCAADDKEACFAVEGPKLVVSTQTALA

Question: Which “% ThT fluorescence change at 100 μmol/L” value ([1]; aggregation enhancer) does the source give for `NCCCCNC(=O)CCC(=O)Nc1cccc2ccccc12` [G, N-(4-aminobutyl)-N'-1-naphthylsuccinamide] here?
Answer: At the same concentrations, the chaperones F and G increased BSA fibrillation

Question: How did the IC50 [2] turn out when `O=C(CCC(=O)Nc1cccc2ccccc12)NCCNC(=O)CCC(=O)Nc1cccc2ccccc12` [F, N3,N3'-ethane-1,2-dyilbis(N1-1-naphthylsuccinamide)] was run?
Answer: 40 µM

Question: How did the IC50 [2] turn out when `O=C(O)CCCCCNC(=O)CCC(=O)Nc1cccc2ccccc12` [E, 6-{[4-(1-naphthylamino)-4-oxobutanoyl]amino} hexanoic acid] was run?
Answer: 5.38 µM

Question: `NCCNC(=O)CCC(=O)Nc1cccc2ccccc12` [A, N-(2-aminoethyl)-N'-1-naphthylsuccinamide] was tested. Which IC50 [2] did it give?
Answer: 6.34 µM

Question: Which IC50 [2] does the source give for `O=C(O)CCNC(=O)CCC(=O)Nc1cccc2ccccc12` [D, N-[4-(1-naphthylamino)-4-oxobutanoyl]-β-alanine] here?
Answer: 6.37 µM

Question: Which “% ThT fluorescence change at 100 μmol/L” value [1] does the source give for `CSC(=S)NCCNC(=O)CCC(=O)Nc1cccc2ccccc12` [B, methyl (2-{[4-(1-naphthylamino)-4-oxobutanoyl]amino}ethyl) dithiocarbamate] here?
Answer: chaperones A, C, D, B and E had a strong inhibitory effect on BSA fibrillation
